Columns and labels:
HT29 tumor fragments = test: HT29 colorectal tumor xenograft, monotherapy study (Example 21); assay type: in vivo; details: for Tumor growth delay: HT29, all three doses tested (40, 60, or 90 mg/kg); for tolerability: all doses
Source text: HT29 tumor fragments were implanted into female, athymic nude mice in the monotherapy study. […]. Animals were weighed and tumor volumes measured twice weekly after the first drug injection in both studies.

[1] = PK/PD study in NCl-H460 lung tumor model (plasma and tumor AUC, t½); details: Day 1 AUC
[2] = PK/PD study in HT29 colon tumor model (plasma and tumor AUC, t½); details: 40 mg/kg IV q4d x3, Day 1 AUC
[3] = test system: Human HT29 colon tumor xenografts; test: HT29 colon tumor xenograft, anti-tumor activity (Examples 2 and 6); details: HT29 colon tumors, 3 doses; for delay in tumor growth (anti-tumor activity) compared to the control: 60 mg/kg IV every 4 days
Protocol: Human HT29 colon tumor xenografts were subcutaneously implanted in athymic nude mice. After about two weeks of adequate tumor growth (100 to 250 mg), these animals were divided into different groups of ten mice each. […] Doses were administered intravenously, with one dose administered every 4 days for a total of 3 administered doses. The mice were observed daily and the tumors were measured with calipers twice a week.
Athymic nude mice were implanted subcutaneously with human cancer cell lines (lung cancer cell line NCl-H460, and colon cancer cell line HT-29) and the tumors allowed to grow to approximately 150 mg in size. The animals were divided into groups of ten mice each.
Tumor volume measurements were taken over a period of 60-80 days; tumor volumes were converted to tumor weight. Body weights were also measured over the same period to provide an indication of weight loss.

MCF-7 breast tumor cells = test: MCF-7 breast tumor xenograft, 4-arm-PEG-gly-irino-20K vs irinotecan; assay type: in vivo, Female athymic (Nu:Nu) mice; details: for Days to 4 Times Tumor Size: median; for Tumor Regression Complete / Tumor Regression Partial: n=10
Protocol: Female athymic (Nu:Nu) mice were injected subcutaneously with MCF-7 breast tumor cells and the tumors were allowed to reach a median volume of 75 mm^3. […] The control group received normal saline. The animals were weighed and tumors were measured twice weekly after administration of the first drug injection.

[4] = Plasma levels of SN-38 in dogs (FIG. 24); assay type: in vivo
Protocol: (§1) Additional illustrative in-vivo studies were carried out as described previously herein or in accordance with methods well-known to one having ordinary skill in the art.

[5] = rodents
[6] = Toxicity: maximum tolerated dose and side-effects in rat and dog (FIG. 22); assay type: in vivo
Protocol: as §1

[7] = Exposure to SN-38 in HT-29 colorectal tumors in mice (FIG. 20); assay type: in vivo
Protocol: as §1

neutrophils = test: Neutropenia in dogs, 4-arm-PEG-GLY-IRINO-20K vs irinotecan (FIG. 21); assay type: in vivo
Protocol: as §1

[8] = Diarrhea episodes in dogs (FIG. 23); assay type: in vivo
Protocol: as §1

DU-145 prostate tumors = test: DU-145 prostate tumor xenograft, PEG-docetaxel vs docetaxel; assay type: in vivo, mice; details: DU-145, two doses (q7 d×2)
[9] = as above; assay type: in vivo, mice; details: NCr nu/nu, mouse, in vivo, intravenous; DU-145 study, q7 d×2; read-out: tolerated dose (maximum tolerated dose)
in vivo = details: NCr nu/nu, mouse
Source text: Human NCl-H460 lung tumors (30 to 40 fragments of each) were implanted subcutaneously in the mice (Charles Rivers Labs: NCr nu/nu) near the right axillary area.
The animals were randomized into groups in a manner such that the median tumor weights on the first day of treatment were as close to each other as possible.
The mice received 1 or 2 intravenous doses of test compound or vehicle (saline).
The animals were weighed and the tumors measured twice weekly after administration of the first injection. The tumor volume was measured by caliper measurements (mm) and using the formula of an ellipsoid sphere: L×W^2/2=mm^3, where L and W refer to the larger and smaller perpendicular dimensions collected at each measurement. This formula was also used to calculate tumor weight assuming unit density (1 mm^3=1 mg).
Any animal found moribund or any animal whose tumor reached 4000 mg, ulcerated or was sloughed off was euthanized prior to study termination.

[10] = single dose, following PEG-Irinotecan administration

Compound: CCc1c2c(nc3ccc(OC(=O)N4CCC(N5CCCCC5)CC4)cc13)-c1cc3c(c(=O)n1C2)COC(=O)[C@]3(O)CC [irinotecan, 7-ethyl-10[4-(1-piperidino)-1-piperidino] carbonyloxy CPT, reference compound]
- Tumor growth delay (HT29 tumor fragments; q4 d×3): 0.3 to 1.6 days
- tolerability (HT29 tumor fragments): well tolerated
- Exposure (AUC) of Irinotecan, Plasma [1]: 0.5 µg·days/mL
- Exposure (AUC) of SN38, Plasma [1]: 0.2 µg·days/mL
- Exposure (AUC) of Irinotecan, Plasma [2]: 0.3 µg·days/mL
- Exposure (AUC) of SN38, Plasma [2]: 0.01 µg·days/mL
- delay in tumor growth (anti-tumor activity) compared to the control [3]: significantly improved when compared to the control
- Days to 4 Times Tumor Size (MCF-7 breast tumor cells; 20 mg/kg per dose x3): 40.2 days
- Tumor Regression Complete (MCF-7 breast tumor cells; 20 mg/kg per dose x3): 0
- Tumor Regression Partial (MCF-7 breast tumor cells; 20 mg/kg per dose x3): 0
- Median Duration (MCF-7 breast tumor cells; 40 mg/kg per dose x3): 42.0 days
- Days to 4 Times Tumor Size (MCF-7 breast tumor cells; 40 mg/kg per dose x3): 42.8 days
- Tumor Regression Complete (MCF-7 breast tumor cells; 40 mg/kg per dose x3): 0
- Tumor Regression Partial (MCF-7 breast tumor cells; 40 mg/kg per dose x3): 1

Compound: Pentaerythritolyl-4-Arm-(PEG-1-Methylene-2Oxo-Vinylamino Acetate Linked-Irinotecan)-20K [4-arm-PEG-GLY-IRINO-20K]
- plasma levels of SN-38 compared to unmodified irinotecan [4]: elevated and sustained over a longer period of time
- complete tumor regression (animals) (HT29 tumor fragments; HT29, 90 mg/kg dose, q4 d×3): 3/10
- partial tumor regression (animals) (HT29 tumor fragments; HT29, 90 mg/kg dose, q4 d×3): 1/10
- Tumor growth delay (HT29 tumor fragments; q4 d×3): 20.9 to 60.2 days
- tumor growth inhibition compared to irinotecan (HT29 tumor fragments; HT29 human colorectal tumor xenograft model): more effectively than irinotecan
- tolerability (HT29 tumor fragments): well tolerated
- Exposure (AUC) of Irinotecan, Plasma [1]: 2.0 µg·days/mL
- Exposure (AUC) of PEG-Irinotecan, Plasma [1]: 1213 µg·days/mL
- Exposure (AUC) of PEG-SN38, Plasma [1]: 229 µg·days/mL
- Exposure (AUC) of SN38, Plasma [1]: 2.6 µg·days/mL
- Exposure (AUC) of Irinotecan, Plasma [2]: 1.5 µg·days/mL
- Exposure (AUC) of PEG-Irinotecan, Plasma [2]: 2143 µg·days/mL
- Exposure (AUC) of PEG-SN38, Plasma [2]: 784 µg·days/mL
- Exposure (AUC) of SN38, Plasma [2]: 5.8 µg·days/mL
- SN38 levels and AUCs after PEG-Irinotecan [5]: very high AUCs
- delay in tumor growth compared to unconjugated irinotecan ([3]; 60 mg/kg (irinotecan content) IV every 4 days): significantly better
- delay in tumor growth (anti-tumor activity) compared to the control [3]: significantly improved when compared to the control
- maximum tolerated dose (MTD) compared to irinotecan ([6]; FIG. 22, rat and dog): significantly higher
- occurrence and/or extent and/or severity of side-effects such as neutropenia and diarrhea vs irinotecan ([6]; equivalent doses (FIG. 23)): reduced
- exposure to SN-38 in colorectal tumors in comparison to irinotecan [7]: two to three times logarithmic increase
- T − C (MCF-7 breast tumor cells; 20 mg/kg per dose x3): >52 days
- Days to 4 Times Tumor Size (MCF-7 breast tumor cells; 20 mg/kg per dose x3): >72 days
- Tumor Regression Complete (MCF-7 breast tumor cells; 20 mg/kg per dose x3): 0
- Tumor Regression Partial (MCF-7 breast tumor cells; 20 mg/kg per dose x3): 0
- Median Duration (MCF-7 breast tumor cells; 40 mg/kg per dose x3): 22.0 days
- T − C (MCF-7 breast tumor cells; 40 mg/kg per dose x3): >52 days
- Days to 4 Times Tumor Size (MCF-7 breast tumor cells; 40 mg/kg per dose x3): >72 days
- Tumor Regression Complete (MCF-7 breast tumor cells; 40 mg/kg per dose x3): 0
- Tumor Regression Partial (MCF-7 breast tumor cells; 40 mg/kg per dose x3): 1
- T − C (MCF-7 breast tumor cells; 60 mg/kg per dose x3): >52 days
- Days to 4 Times Tumor Size (MCF-7 breast tumor cells; 60 mg/kg per dose x3): >72 days
- Tumor Regression Complete (MCF-7 breast tumor cells; 60 mg/kg per dose x3): 0
- Tumor Regression Partial (MCF-7 breast tumor cells; 60 mg/kg per dose x3): 0
- T − C (MCF-7 breast tumor cells; 90 mg/kg per dose x3): >52 days
- Tumor Regression Partial (MCF-7 breast tumor cells; 90 mg/kg per dose x3, <50% of size observed on Day 1): 1
- Median Duration (MCF-7 breast tumor cells; 90 mg/kg per dose x3, interval regressed tumor below 50% pretreatment size): 49.0 days
- Days to 4 Times Tumor Size (MCF-7 breast tumor cells; 90 mg/kg per dose x3): >72 days
- Tumor Regression Complete (MCF-7 breast tumor cells; 90 mg/kg per dose x3, unpalpable): 0
- T-C value compared with irinotecan treatment groups (MCF-7 breast tumor cells; all 4 dose levels, p<0.001): significantly higher
- tumor regrowth (MCF-7 breast tumor cells; any dose level (FIG. 15A)): No tumor regrowth occurred
- t½ of PEG-Irinotecan, species comparison (in vivo): Dog > rat =
- exposure to irinotecan and SN38 vs dosing with irinotecan per se (single dose, all species examined): sustained and greater exposure
- AUC of PEG-Irinotecan, species comparison [10]: mouse < rat < dog
- AUC of SN38, species comparison [10]: mouse >> rat >> dog
- Cmax of PEG-Irinotecan, species comparison [10]: mouse < rat < dog
- Cmax of SN38, species comparison [10]: Mouse >> rat >> dog
- neutropenia compared to irinotecan at an equivalent dose (neutrophils): reduced neutropenia
- diarrhea episodes compared to irinotecan [8]: fewer diarrhea episodes

Compound: CC(=O)O[C@@]12CO[C@@H]1C[C@H](O)[C@@]1(C)C(=O)[C@H](O)C3=C(C)[C@@H](OC(=O)[C@H](O)[C@@H](NC(=O)OC(C)(C)C)c4ccccc4)C[C@@](O)([C@@H](OC(=O)c4ccccc4)[C@H]21)C3(C)C [docetaxel]
- time after which tumors did recover and grow (DU-145 prostate tumors): 30 to 50 days
- anti-tumor effect on tumor growth (DU-145 prostate tumors; all 3 doses tested, 78 day observation period): good activity
- MTD at 78 day [9]: ≤ 30 mg/kg
- MTD (in vivo): ≤ 30 mg/kg

From patent US10463659B2, “Multi-arm polymer prodrugs” (priority 2003, dated 2019)
